# Reference: PubChem BioAssay (NCI)
#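 1) Cells in 96-well plates. 2) Compound, 48 h, 5 concentrations. 3) Linear interpolation between surrounding doses. 4) Unreached endpoint = highest concentration. At the TGI there is no net growth.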
# System: SK-OV-3 ovarian
# Experiment: DTP human tumour cell line panel, 48 h
row,SMILES,TGI [µM]
1,CCNC(=S)NNC(=O)C12CC3CC(CC(C3)C1)C2,> 100
2,CCN(CC)CCNc1nc(N)c(C#N)c(C#N)c1C#N,> 10
3,CC1(C)OC[C@@H](O)[C@H](C#N)CO1,> 100
4,CCOc1ccc(/C=C2\N=C(c3ccc([N+](=O)[O-])cc3)OC2=O)cc1,> 100
5,CSc1cc(-c2cccs2)sc1-c1cc(SC)c(-c2sc(-c3sc(-c4cccs4)cc3SC)cc2SC)s1,> 100
6,CCC(C)(C)c1ccc(OCCCCNC(=O)c2ccc3ccccc3c2O)c(C(C)(C)CC)c1,> 100

# System: MCF7 breast
# Experiment: DTP human tumour cell line panel, 48 h
row,SMILES,TGI [µM]
1,CN1CCOC1c1ccccc1O (configuration not stated),> 100
2,CCNC(=S)NNC(=O)C12CC3CC(CC(C3)C1)C2,> 100
3,CCN(CC)CCNc1nc(N)c(C#N)c(C#N)c1C#N,> 10
4,CC1(C)OC[C@@H](O)[C@H](C#N)CO1,> 100
5,CCOc1ccc(/C=C2\N=C(c3ccc([N+](=O)[O-])cc3)OC2=O)cc1,> 100
6,CSc1cc(-c2cccs2)sc1-c1cc(SC)c(-c2sc(-c3sc(-c4cccs4)cc3SC)cc2SC)s1,> 100
7,CCC(C)(C)c1ccc(OCCCCNC(=O)c2ccc3ccccc3c2O)c(C(C)(C)CC)c1,> 100

# System: HCT-116 colon
# Experiment: DTP human tumour cell line panel, 48 h
row,SMILES,TGI [µM]
1,CN1CCOC1c1ccccc1O (configuration not stated),> 100
2,CCNC(=S)NNC(=O)C12CC3CC(CC(C3)C1)C2,> 100
3,CCN(CC)CCNc1nc(N)c(C#N)c(C#N)c1C#N,> 10
4,CC1(C)OC[C@@H](O)[C@H](C#N)CO1,> 100
5,CCOc1ccc(/C=C2\N=C(c3ccc([N+](=O)[O-])cc3)OC2=O)cc1,> 100
6,CSc1cc(-c2cccs2)sc1-c1cc(SC)c(-c2sc(-c3sc(-c4cccs4)cc3SC)cc2SC)s1,> 100
7,CCC(C)(C)c1ccc(OCCCCNC(=O)c2ccc3ccccc3c2O)c(C(C)(C)CC)c1,> 100

# System: U251 CNS
# Experiment: DTP human tumour cell line panel, 48 h
row,SMILES,TGI [µM]
1,CN1CCOC1c1ccccc1O (configuration not stated),> 100
2,CCNC(=S)NNC(=O)C12CC3CC(CC(C3)C1)C2,> 100
3,CCN(CC)CCNc1nc(N)c(C#N)c(C#N)c1C#N,> 10
4,CC1(C)OC[C@@H](O)[C@H](C#N)CO1,> 100
5,CCOc1ccc(/C=C2\N=C(c3ccc([N+](=O)[O-])cc3)OC2=O)cc1,> 100
6,CSc1cc(-c2cccs2)sc1-c1cc(SC)c(-c2sc(-c3sc(-c4cccs4)cc3SC)cc2SC)s1,> 100
7,CCC(C)(C)c1ccc(OCCCCNC(=O)c2ccc3ccccc3c2O)c(C(C)(C)CC)c1,> 100

# System: LOX IMVI melanoma
# Experiment: DTP human tumour cell line panel, 48 h
row,SMILES,TGI [µM]
1,CN1CCOC1c1ccccc1O (configuration not stated),> 100
2,CCNC(=S)NNC(=O)C12CC3CC(CC(C3)C1)C2,> 100
3,CCN(CC)CCNc1nc(N)c(C#N)c(C#N)c1C#N,> 10
4,CC1(C)OC[C@@H](O)[C@H](C#N)CO1,> 100
5,CCOc1ccc(/C=C2\N=C(c3ccc([N+](=O)[O-])cc3)OC2=O)cc1,> 100
6,CSc1cc(-c2cccs2)sc1-c1cc(SC)c(-c2sc(-c3sc(-c4cccs4)cc3SC)cc2SC)s1,> 100

# System: SK-MEL-28 melanoma
# Experiment: DTP human tumour cell line panel, 48 h
row,SMILES,TGI [µM]
1,CCNC(=S)NNC(=O)C12CC3CC(CC(C3)C1)C2,> 100
2,CCN(CC)CCNc1nc(N)c(C#N)c(C#N)c1C#N,> 10
3,CC1(C)OC[C@@H](O)[C@H](C#N)CO1,> 100
4,CCOc1ccc(/C=C2\N=C(c3ccc([N+](=O)[O-])cc3)OC2=O)cc1,> 100
5,CSc1cc(-c2cccs2)sc1-c1cc(SC)c(-c2sc(-c3sc(-c4cccs4)cc3SC)cc2SC)s1,> 100
6,CCC(C)(C)c1ccc(OCCCCNC(=O)c2ccc3ccccc3c2O)c(C(C)(C)CC)c1,> 100

# System: OVCAR-3 ovarian
# Experiment: DTP human tumour cell line panel, 48 h
row,SMILES,TGI [µM]
1,CN1CCOC1c1ccccc1O (configuration not stated),> 100
2,CCNC(=S)NNC(=O)C12CC3CC(CC(C3)C1)C2,> 100
3,CCN(CC)CCNc1nc(N)c(C#N)c(C#N)c1C#N,> 10
4,CC1(C)OC[C@@H](O)[C@H](C#N)CO1,> 100
5,CCOc1ccc(/C=C2\N=C(c3ccc([N+](=O)[O-])cc3)OC2=O)cc1,> 100
6,CSc1cc(-c2cccs2)sc1-c1cc(SC)c(-c2sc(-c3sc(-c4cccs4)cc3SC)cc2SC)s1,> 100
7,CCC(C)(C)c1ccc(OCCCCNC(=O)c2ccc3ccccc3c2O)c(C(C)(C)CC)c1,73.2

# System: M14 melanoma
# Experiment: DTP human tumour cell line panel, 48 h
row,SMILES,TGI [µM]
1,CN1CCOC1c1ccccc1O (configuration not stated),> 100
2,CCNC(=S)NNC(=O)C12CC3CC(CC(C3)C1)C2,> 100
3,CCN(CC)CCNc1nc(N)c(C#N)c(C#N)c1C#N,> 10
4,CC1(C)OC[C@@H](O)[C@H](C#N)CO1,> 100
5,CCOc1ccc(/C=C2\N=C(c3ccc([N+](=O)[O-])cc3)OC2=O)cc1,> 100
6,CSc1cc(-c2cccs2)sc1-c1cc(SC)c(-c2sc(-c3sc(-c4cccs4)cc3SC)cc2SC)s1,> 100
7,CCC(C)(C)c1ccc(OCCCCNC(=O)c2ccc3ccccc3c2O)c(C(C)(C)CC)c1,> 100

# System: SF-268 CNS
# Experiment: DTP human tumour cell line panel, 48 h
row,SMILES,TGI [µM]
1,CN1CCOC1c1ccccc1O (configuration not stated),> 100
2,CCNC(=S)NNC(=O)C12CC3CC(CC(C3)C1)C2,> 100
3,CCN(CC)CCNc1nc(N)c(C#N)c(C#N)c1C#N,> 10
4,CC1(C)OC[C@@H](O)[C@H](C#N)CO1,> 100
5,CCOc1ccc(/C=C2\N=C(c3ccc([N+](=O)[O-])cc3)OC2=O)cc1,> 100
6,CSc1cc(-c2cccs2)sc1-c1cc(SC)c(-c2sc(-c3sc(-c4cccs4)cc3SC)cc2SC)s1,> 100
7,CCC(C)(C)c1ccc(OCCCCNC(=O)c2ccc3ccccc3c2O)c(C(C)(C)CC)c1,> 100

# System: OVCAR-5 ovarian
# Experiment: DTP human tumour cell line panel, 48 h
row,SMILES,TGI [µM]
1,CN1CCOC1c1ccccc1O (configuration not stated),> 100
2,CCNC(=S)NNC(=O)C12CC3CC(CC(C3)C1)C2,> 100
3,CCN(CC)CCNc1nc(N)c(C#N)c(C#N)c1C#N,> 10
4,CC1(C)OC[C@@H](O)[C@H](C#N)CO1,> 100
5,CCOc1ccc(/C=C2\N=C(c3ccc([N+](=O)[O-])cc3)OC2=O)cc1,> 100
6,CSc1cc(-c2cccs2)sc1-c1cc(SC)c(-c2sc(-c3sc(-c4cccs4)cc3SC)cc2SC)s1,> 100
7,CCC(C)(C)c1ccc(OCCCCNC(=O)c2ccc3ccccc3c2O)c(C(C)(C)CC)c1,> 100

# System: 786-0 renal
# Experiment: DTP human tumour cell line panel, 48 h
row,SMILES,TGI [µM]
1,CN1CCOC1c1ccccc1O (configuration not stated),> 100
2,CCNC(=S)NNC(=O)C12CC3CC(CC(C3)C1)C2,> 100
3,CCN(CC)CCNc1nc(N)c(C#N)c(C#N)c1C#N,> 10
4,CC1(C)OC[C@@H](O)[C@H](C#N)CO1,> 100
5,CCOc1ccc(/C=C2\N=C(c3ccc([N+](=O)[O-])cc3)OC2=O)cc1,> 100
6,CSc1cc(-c2cccs2)sc1-c1cc(SC)c(-c2sc(-c3sc(-c4cccs4)cc3SC)cc2SC)s1,> 100
7,CCC(C)(C)c1ccc(OCCCCNC(=O)c2ccc3ccccc3c2O)c(C(C)(C)CC)c1,93.5

# System: COLO 205 colon
# Experiment: DTP human tumour cell line panel, 48 h
row,SMILES,TGI [µM]
1,CN1CCOC1c1ccccc1O (configuration not stated),> 100
2,CCNC(=S)NNC(=O)C12CC3CC(CC(C3)C1)C2,> 100
3,CCN(CC)CCNc1nc(N)c(C#N)c(C#N)c1C#N,> 10
4,CC1(C)OC[C@@H](O)[C@H](C#N)CO1,> 100
5,CCOc1ccc(/C=C2\N=C(c3ccc([N+](=O)[O-])cc3)OC2=O)cc1,> 100
6,CSc1cc(-c2cccs2)sc1-c1cc(SC)c(-c2sc(-c3sc(-c4cccs4)cc3SC)cc2SC)s1,> 100
7,CCC(C)(C)c1ccc(OCCCCNC(=O)c2ccc3ccccc3c2O)c(C(C)(C)CC)c1,34.2

# System: NCI-H522 lung
# Experiment: DTP human tumour cell line panel, 48 h
row,SMILES,TGI [µM]
1,CN1CCOC1c1ccccc1O (configuration not stated),> 100
2,CCNC(=S)NNC(=O)C12CC3CC(CC(C3)C1)C2,> 100
3,CCN(CC)CCNc1nc(N)c(C#N)c(C#N)c1C#N,> 10
4,CC1(C)OC[C@@H](O)[C@H](C#N)CO1,> 100
5,CCOc1ccc(/C=C2\N=C(c3ccc([N+](=O)[O-])cc3)OC2=O)cc1,> 100
6,CSc1cc(-c2cccs2)sc1-c1cc(SC)c(-c2sc(-c3sc(-c4cccs4)cc3SC)cc2SC)s1,> 100
7,CCC(C)(C)c1ccc(OCCCCNC(=O)c2ccc3ccccc3c2O)c(C(C)(C)CC)c1,91.2

# System: MDA-MB-435
# Experiment: DTP human tumour cell line panel, 48 h
row,SMILES,TGI [µM]
1,CN1CCOC1c1ccccc1O (configuration not stated),> 100
2,CCNC(=S)NNC(=O)C12CC3CC(CC(C3)C1)C2,> 100
3,CCN(CC)CCNc1nc(N)c(C#N)c(C#N)c1C#N,> 10
4,CC1(C)OC[C@@H](O)[C@H](C#N)CO1,> 100
5,CCOc1ccc(/C=C2\N=C(c3ccc([N+](=O)[O-])cc3)OC2=O)cc1,> 100
6,CSc1cc(-c2cccs2)sc1-c1cc(SC)c(-c2sc(-c3sc(-c4cccs4)cc3SC)cc2SC)s1,> 100

# System: MALME-3M melanoma
# Experiment: DTP human tumour cell line panel, 48 h
row,SMILES,TGI [µM]
1,CN1CCOC1c1ccccc1O (configuration not stated),> 100
2,CCNC(=S)NNC(=O)C12CC3CC(CC(C3)C1)C2,> 100
3,CCN(CC)CCNc1nc(N)c(C#N)c(C#N)c1C#N,> 10
